Measured values: ChEMBL document CHEMBL1201862, “PubChem BioAssay data set” (2004)
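Results reflect a 48-hour exposure of cells in 96-well plates to compound at five concentrations. GI50: concentration for 50% inhibition of growth.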 Activity calls are given as the source filed them. Rule as the data show it: active = GI50 up to about 1.1 µM and inactive = higher.

Legend:
Assay in all cases: DTP human tumour cell line panel, 48 h
IGROV-1 = system: IGROV-1
U-251 = system: U-251
SF-295 = system: SF-295
UACC-62 = system: UACC-62
UACC-257 = system: UACC-257
LOX IMVI = system: LOX IMVI
CCRF-CEM = system: CCRF-CEM
SR = system: SR
OVCAR-8 = system: OVCAR-8
HCT-15 = system: HCT-15
UO-31 = system: UO-31
PC-3 = system: PC-3
DU-145 = system: DU-145
OVCAR-5 = system: OVCAR-5
HCC 2998 = system: HCC 2998
SK-MEL-28 = system: SK-MEL-28
OVCAR-4 = system: OVCAR-4
K562 = system: K562
TK-10 = system: TK-10
RPMI-8226 = system: RPMI-8226

| SMILES | GI50 (IGROV-1) | GI50 (U-251) | GI50 (SF-295) | GI50 (UACC-62) | GI50 (UACC-257) | GI50 (LOX IMVI) | GI50 (CCRF-CEM) | GI50 (SR) | GI50 (OVCAR-8) | GI50 (HCT-15) | GI50 (UO-31) | GI50 (PC-3) | GI50 (DU-145) | GI50 (OVCAR-5) | GI50 (HCC 2998) | GI50 (SK-MEL-28) | GI50 (OVCAR-4) | GI50 (K562) | GI50 (TK-10) | GI50 (RPMI-8226) |
| --- | --- | --- | --- | --- | --- | --- | --- | --- | --- | --- | --- | --- | --- | --- | --- | --- | --- | --- | --- | --- |
| Cn1nnc2c(C(N)=O)ncn2c1=O [TEMOZOLOMIDE] | > 100 µM (inactive) | > 100 µM (inactive) | > 100 µM (inactive) | > 100 µM (inactive) | > 100 µM (inactive) | 82 µM (inactive) | 78.3 µM (inactive) | > 100 µM (inactive) | > 100 µM (inactive) | > 100 µM | > 74 µM (inactive) | > 100 µM (inactive) | > 100 µM (inactive) | > 100 µM (inactive) | > 100 µM (inactive) | > 100 µM (inactive) | > 100 µM (inactive) | 75.9 µM (inactive) | > 100 µM (inactive) | > 100 µM (inactive) |
| N=c1oc2ccccc2cc1C(=O)Nc1nccs1 | 8.26 µM (inactive) | 33 µM (inactive) | 35.6 µM (inactive) | 32.2 µM (inactive) | 27 µM (inactive) | 2.33 µM (inactive) | 2.79 µM (inactive) | 3.24 µM (inactive) | 16.8 µM (inactive) | 24.8 µM | 0.031 µM (active) | 34.5 µM (inactive) | 20.9 µM (inactive) | > 69.3 µM (inactive) | 35.2 µM (inactive) | 44.5 µM (inactive) | 20.5 µM (inactive) | 13.9 µM (inactive) | 7.85 µM (inactive) | 14.1 µM (inactive) |
| COc1ccc(C2CC(c3ccc4ccccc4c3O)=NN2C(C)=O)cc1OC (stereo not drawn) | > 100 µM (inactive) | > 100 µM (inactive) | > 100 µM (inactive) | 75.9 µM (inactive) | > 100 µM (inactive) | – | 18.8 µM (inactive) | 19.1 µM (inactive) | > 100 µM (inactive) | > 100 µM | > 100 µM (inactive) | > 100 µM (inactive) | > 100 µM (inactive) | > 100 µM (inactive) | > 100 µM (inactive) | > 100 µM (inactive) | > 100 µM (inactive) | 78.5 µM (inactive) | > 100 µM (inactive) | > 100 µM (inactive) |
| COc1ccc2nc(-c3ccccc3)cc(OCC(=O)O)c2c1 | > 100 µM (inactive) | > 100 µM (inactive) | > 100 µM (inactive) | > 100 µM (inactive) | > 100 µM (inactive) | > 100 µM (inactive) | > 100 µM (inactive) | > 100 µM (inactive) | > 100 µM (inactive) | > 100 µM | 25.4 µM (inactive) | > 100 µM (inactive) | > 100 µM (inactive) | > 100 µM (inactive) | > 100 µM (inactive) | > 100 µM (inactive) | – | > 100 µM (inactive) | > 100 µM (inactive) | > 100 µM (inactive) |
| CC(=O)ON(C(C)=O)c1ccc(-c2nc3ccccc3s2)cc1 | 0.791 µM (active) | 24.2 µM (inactive) | 30.1 µM (inactive) | 20.9 µM (inactive) | 37 µM (inactive) | 25.5 µM (inactive) | 7.35 µM (inactive) | 25.6 µM (inactive) | 21.2 µM (inactive) | 24.4 µM | 14.6 µM (inactive) | 50.6 µM (inactive) | 26.2 µM (inactive) | 34.2 µM (inactive) | 17.4 µM (inactive) | 31.8 µM (inactive) | 38.7 µM (inactive) | 41 µM (inactive) | 34.4 µM (inactive) | 18.3 µM (inactive) |
| CCCCCCCCCCCCCCCCCCN(C)CC(COC)OP(=O)([O-])OCC[N+](C)(C)C (stereo not drawn) | 0.532 µM (active) | 0.891 µM (active) | 1.07 µM (active) | 3.05 µM (inactive) | 9.08 µM (inactive) | 5.14 µM (inactive) | 1.51 µM (inactive) | 0.341 µM (active) | 3.27 µM (inactive) | 3.14 µM | 7.52 µM (inactive) | 0.374 µM (active) | 2.22 µM (inactive) | 1.72 µM (inactive) | 1.42 µM (inactive) | 15.7 µM (inactive) | 2.54 µM (inactive) | 9.42 µM (inactive) | 1.03 µM (active) | 0.635 µM (active) |
| Cc1cc(=O)oc2cc(O)c(CN(C)CC(=O)O)cc12 | > 100 µM (inactive) | > 100 µM (inactive) | – | > 100 µM (inactive) | > 100 µM (inactive) | > 100 µM (inactive) | – | > 100 µM (inactive) | > 100 µM (inactive) | > 100 µM | > 100 µM (inactive) | > 100 µM (inactive) | > 100 µM (inactive) | > 100 µM (inactive) | > 100 µM (inactive) | > 100 µM (inactive) | > 100 µM (inactive) | > 100 µM (inactive) | > 100 µM (inactive) | > 100 µM (inactive) |
| COc1cc(C2c3cc4c(cc3C(O)C3CCC(=O)N23)OCO4)cc(OC)c1OC (stereo not drawn) | 39.5 µM (inactive) | 26.1 µM (inactive) | 6.68 µM (inactive) | 40.8 µM (inactive) | > 100 µM (inactive) | 52.4 µM (inactive) | 29.9 µM (inactive) | 39.9 µM (inactive) | 37.2 µM (inactive) | 31 µM | 15.7 µM (inactive) | 54.3 µM (inactive) | 51.8 µM (inactive) | 43.2 µM (inactive) | 34.4 µM (inactive) | 16.8 µM (inactive) | – | 26.5 µM (inactive) | 69.2 µM (inactive) | 27.1 µM (inactive) |
| C=C(C)C(O)C(O)c1c(OC)ccc2ccc(=O)oc12 (stereo not drawn) | > 100 µM (inactive) | > 100 µM (inactive) | > 100 µM (inactive) | > 100 µM (inactive) | > 100 µM (inactive) | – | > 100 µM (inactive) | > 100 µM (inactive) | > 100 µM (inactive) | > 100 µM | > 100 µM (inactive) | > 100 µM (inactive) | > 100 µM (inactive) | > 100 µM (inactive) | > 100 µM (inactive) | > 100 µM (inactive) | > 100 µM (inactive) | > 100 µM (inactive) | > 100 µM (inactive) | > 100 µM (inactive) |
| Oc1ccc(-c2nn3c(CCCCCCCCc4nnc5sc(-c6ccc(O)cc6)nn45)nnc3s2)cc1 | – | > 100 µM (inactive) | > 100 µM (inactive) | > 100 µM (inactive) | > 100 µM (inactive) | > 100 µM (inactive) | > 100 µM (inactive) | > 100 µM (inactive) | > 100 µM (inactive) | > 100 µM | > 100 µM (inactive) | > 100 µM (inactive) | > 100 µM (inactive) | > 100 µM (inactive) | > 100 µM (inactive) | > 100 µM (inactive) | > 100 µM (inactive) | > 100 µM (inactive) | > 100 µM (inactive) | > 100 µM (inactive) |
| Cc1nc(-[n+]2nc(-c3ccncc3)nn2-c2ccccc2)sc1C | 5.01 µM (inactive) | 29.4 µM (inactive) | 9.93 µM (inactive) | 8.36 µM (inactive) | 26.7 µM (inactive) | 2.69 µM (inactive) | 17.5 µM (inactive) | > 100 µM (inactive) | 42.9 µM (inactive) | 16.4 µM | 7.73 µM (inactive) | 15.5 µM (inactive) | 36.2 µM (inactive) | 44.6 µM (inactive) | > 100 µM (inactive) | 34.5 µM (inactive) | – | 4.91 µM (inactive) | 21.8 µM (inactive) | 68.1 µM (inactive) |
| COc1cccc(C(NC2=NCCC=N2)c2cc3c(cc2O)OCO3)c1O (stereo not drawn) | 29.4 µM (inactive) | 17.7 µM (inactive) | 42.2 µM (inactive) | 23.3 µM (inactive) | 34.4 µM (inactive) | 19.5 µM (inactive) | 10.8 µM (inactive) | 11.6 µM (inactive) | 10.4 µM (inactive) | 14.1 µM | 35.6 µM (inactive) | 29.1 µM (inactive) | > 100 µM (inactive) | 36.6 µM (inactive) | 19.9 µM (inactive) | 32.7 µM (inactive) | – | 17.9 µM (inactive) | 76.9 µM (inactive) | 21.5 µM (inactive) |
| CO[C@@H]1C[C@H]2[C@@H]3CC[C@H]([C@H](C)COC(C)=O)[C@@]3(C)CC[C@@H]2[C@@]2(C)CC[C@H]3C[C@]312 | > 100 µM (inactive) | > 100 µM (inactive) | > 100 µM (inactive) | – | > 100 µM (inactive) | > 100 µM (inactive) | > 100 µM (inactive) | > 100 µM (inactive) | > 100 µM (inactive) | > 100 µM | > 100 µM (inactive) | > 100 µM (inactive) | > 100 µM (inactive) | > 100 µM (inactive) | > 100 µM (inactive) | > 100 µM (inactive) | > 100 µM (inactive) | 63.1 µM (inactive) | > 100 µM (inactive) | > 100 µM (inactive) |
| CCOC(=O)c1ccc(NC(NC(=O)CC)(C(F)(F)F)C(F)(F)F)cc1 | > 100 µM (inactive) | > 100 µM (inactive) | > 100 µM (inactive) | 34.4 µM (inactive) | > 100 µM (inactive) | 96.2 µM (inactive) | > 100 µM (inactive) | 14.1 µM (inactive) | > 100 µM (inactive) | 97.1 µM | 36.2 µM (inactive) | 60.3 µM (inactive) | > 100 µM (inactive) | > 100 µM (inactive) | > 100 µM (inactive) | > 100 µM (inactive) | – | 39.3 µM (inactive) | > 100 µM (inactive) | > 100 µM (inactive) |
| CCOC(=O)Nc1cc(NC(/C=N/NC(C)=O)C(=O)OCC)c(OC)cc1NC(C)=O (stereo not drawn) | > 100 µM (inactive) | > 100 µM (inactive) | > 100 µM (inactive) | > 100 µM (inactive) | > 100 µM (inactive) | – | > 100 µM (inactive) | > 100 µM (inactive) | > 100 µM (inactive) | > 100 µM | > 100 µM (inactive) | > 100 µM (inactive) | > 100 µM (inactive) | > 100 µM (inactive) | > 100 µM (inactive) | > 100 µM (inactive) | > 100 µM (inactive) | > 100 µM (inactive) | > 100 µM (inactive) | > 100 µM (inactive) |
